From the supplement of paper PMC10307832

What was measured:
Assay in all cases: relative viability (nuclei count vs DMSO), 5 days (fraction); higher = more cells survive
TPCA-1 + Bortezomib = compound: C1=CC(=CC=C1C2=CC(=C(S2)NC(=O)N)C(=O)N)F [TPCA-1] + CC(C)C[C@H](NC(=O)[C@H](Cc1ccccc1)NC(=O)c1cnccn1)B(O)O [Bortezomib] (partner 0.002 µM)
Summary of the method: (§1)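 Lung cancer cell lines in 1536-well plates got either a single drug or a fixed anchor-drug dose together with five library-drug doses (not always all listed) in √10 steps, by pin tool, on the day after seeding. Nuclei were counted after 5 days, and relative viability is the treated-to-vehicle ratio of nuclei counts. Values are medians of duplicate plates.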

[1] = compound: C1/C(=C\C2=CC=CS2)/C(=O)/C(=C/C3=CC=CS3)/C1 + Nc1ncn([C@H]2C[C@H](O)[C@@H](CO)O2)c(=O)n1 [Decitabine] (partner 2 µM)
Summary of the method: as §1

TPCA-1 + Foretinib = compound: C1=CC(=CC=C1C2=CC(=C(S2)NC(=O)N)C(=O)N)F [TPCA-1] + COc1cc2c(Oc3ccc(NC(=O)C4(C(=O)Nc5ccc(F)cc5)CC4)cc3F)ccnc2cc1OCCCN1CCOCC1 [Foretinib] (partner 0.25 µM)
Summary of the method: as §1

| Cell Line | relative viability (TPCA-1 + Bortezomib; first compound 0.04 µM) | relative viability (TPCA-1 + Bortezomib; first compound 0.1265 µM) | relative viability (TPCA-1 + Bortezomib; first compound 0.4 µM) | relative viability (TPCA-1 + Bortezomib; first compound 1.265 µM) | relative viability (TPCA-1 + Bortezomib; first compound 4 µM) | relative viability ([1]; first compound 0.2 µM) | relative viability ([1]; first compound 0.6325 µM) | relative viability ([1]; first compound 2 µM) | relative viability ([1]; first compound 6.325 µM) | relative viability ([1]; first compound 20 µM) | relative viability (TPCA-1 + Foretinib; first compound 0.04 µM) | relative viability (TPCA-1 + Foretinib; first compound 0.1265 µM) | relative viability (TPCA-1 + Foretinib; first compound 0.4 µM) | relative viability (TPCA-1 + Foretinib; first compound 1.265 µM) | relative viability (TPCA-1 + Foretinib; first compound 4 µM) |
| --- | --- | --- | --- | --- | --- | --- | --- | --- | --- | --- | --- | --- | --- | --- | --- |
| NCI-H661 | 0.651 | 0.662 | 0.986 | 0.753 | 0.501 | 0.605 | 0.567 | 0.56 | 0.475 | 0.496 | 1.08 | 1.03 | 1.06 | 0.96 | 0.888 |
| EMC-BAC-2 | 1.12 | 1.07 | 1.11 | 1.08 | 0.932 | 1 | 0.968 | 1.03 | 0.909 | 0.924 | 1.02 | 0.956 | 1.05 | 1.14 | 0.887 |
| NCI-H1355 | 1.25 | 1.09 | 1.15 | 1.01 | 0.984 | 0.369 | 0.388 | 0.319 | 0.304 | 0.325 | 0.991 | 0.837 | 0.977 | 0.932 | 0.705 |
| NCI-H23 | 1.12 | 0.935 | 0.909 | 1.11 | 0.512 | 0.32 | 0.293 | 0.314 | 0.34 | 0.285 | 0.947 | 0.934 | 0.935 | 1.08 | 0.867 |
| NCI-H1651 | 0.909 | 0.927 | 0.917 | 0.891 | 0.649 | 0.616 | 0.646 | 0.868 | 0.357 | 0.587 | 0.862 | 0.656 | 0.801 | 0.794 | 0.735 |
| NCI-H1975 | 0.327 | 0.417 | 0.321 | 0.437 | 0.26 | 0.404 | 0.356 | 0.324 | 0.365 | 0.385 | 0.949 | 0.919 | 0.995 | 0.97 | 0.532 |
| COR-L23 | 1.27 | 0.854 | 0.983 | 0.937 | 0.751 | 0.427 | 0.411 | 0.488 | 0.472 | 0.417 | 1.11 | 0.884 | 1.05 | 0.916 | 0.803 |
| LOU-NH91 | 0.508 | 0.514 | 0.502 | 0.523 | 0.574 | 0.85 | 0.777 | 0.781 | 0.797 | 0.825 | 0.984 | 0.887 | 0.971 | 0.97 | 0.803 |
| NCI-H441 | 0.63 | 0.32 | 0.42 | 0.266 | 0.404 | 0.265 | 0.267 | 0.247 | 0.234 | 0.414 | 0.487 | 0.856 | 0.841 | 0.834 | 0.668 |
| NCI-H647 | 1.26 | 0.809 | 0.954 | 0.751 | 0.418 | 0.43 | 0.424 | 0.32 | 0.441 | 0.357 | 1.2 | 1.14 | 1.11 | 1.16 | 0.782 |
| NCI-H1915 | 0.949 | 0.961 | 0.954 | 0.664 | 0.886 | 0.261 | 0.279 | 0.246 | 0.232 | 0.268 | 1.17 | 1.06 | 1.15 | 1.07 | 0.872 |
| NCI-H1734 | 1.02 | 0.816 | 1.12 | 0.938 | 0.554 | 0.582 | 0.427 | 0.523 | 0.403 | 0.486 | 0.897 | 0.742 | 0.917 | 0.818 | 0.732 |
| NCI-H1993 | 1.13 |  | 1.14 | 1.28 | 0.836 | 0.557 | 0.558 | 0.675 | 0.499 | 0.432 | 0.798 | 0.644 | 0.75 | 0.663 | 0.676 |
| HCC-78 | 0.437 | 0.439 | 0.531 | 0.27 | 0.281 | 0.653 | 0.763 | 0.755 | 0.714 | 0.686 | 0.611 | 0.52 | 0.608 | 0.65 | 0.541 |
| NCI-H2405 | 0.988 | 0.843 | 1.02 | 0.92 | 0.289 | 0.798 | 0.722 | 0.822 | 0.719 | 0.704 | 1.03 | 1.05 | 1.11 | 0.991 | 1.03 |
| HOP-62 | 0.641 | 0.707 | 0.832 | 0.738 | 0.57 | 0.211 | 0.202 | 0.199 | 0.221 | 0.202 | 1.19 | 1.09 | 1.17 | 1.06 | 1.06 |
| NCI-H650 | 0.877 | 0.898 | 0.923 | 0.326 | 0.554 | 0.311 | 0.293 | 0.293 | 0.307 | 0.306 | 1.01 | 0.947 | 1.03 | 0.729 | 0.858 |
| BEN | 1.17 | 0.53 | 0.805 | 0.999 | 0.587 | 0.666 | 0.724 | 0.893 | 0.643 | 0.644 | 0.654 | 0.549 | 0.671 | 0.679 | 0.303 |

| Cell Line | relative viability (TPCA-1 + Bortezomib; first compound 0.04 µM) | relative viability (TPCA-1 + Bortezomib; first compound 0.1265 µM) | relative viability (TPCA-1 + Bortezomib; first compound 0.4 µM) | relative viability (TPCA-1 + Bortezomib; first compound 1.265 µM) | relative viability (TPCA-1 + Bortezomib; first compound 4 µM) | relative viability ([1]; first compound 0.2 µM) | relative viability ([1]; first compound 0.6325 µM) | relative viability ([1]; first compound 2 µM) | relative viability ([1]; first compound 6.325 µM) | relative viability ([1]; first compound 20 µM) | relative viability (TPCA-1 + Foretinib; first compound 0.04 µM) | relative viability (TPCA-1 + Foretinib; first compound 0.1265 µM) | relative viability (TPCA-1 + Foretinib; first compound 0.4 µM) | relative viability (TPCA-1 + Foretinib; first compound 1.265 µM) | relative viability (TPCA-1 + Foretinib; first compound 4 µM) |
| --- | --- | --- | --- | --- | --- | --- | --- | --- | --- | --- | --- | --- | --- | --- | --- |
| SW 1573 | 1.07 | 1.19 | 1.1 | 1.11 | 0.834 | 0.609 | 0.502 | 0.552 | 0.408 | 0.456 | 0.6 | 0.811 | 1.03 | 0.964 | 0.866 |
| ChaGo-K-1 | 0.83 | 0.995 | 1.11 | 0.903 | 0.377 | 0.528 | 0.394 | 0.494 | 0.436 | 0.242 | 0.998 | 0.894 | 0.992 | 0.857 | 0.612 |
| NCI-H1755 | 0.948 | 0.9 | 1.05 | 0.881 | 0.832 | 0.74 | 0.706 | 0.743 | 0.676 | 0.706 | 0.914 | 0.895 | 0.923 | 0.832 | 0.669 |
| NCI-H2023 | 1.07 | 0.941 | 1.11 | 0.845 | 0.386 | 0.247 | 0.234 | 0.228 | 0.21 | 0.236 | 0.88 | 0.86 | 0.874 | 0.797 | 0.658 |
| LC-2-ad | 1.11 | 1.01 | 0.94 | 1.04 | 0.371 | 0.861 | 0.823 | 0.797 | 0.666 | 0.748 | 1.06 | 0.88 | 0.818 | 0.845 | 0.552 |
| NCI-H1666 | 0.808 | 0.807 | 0.996 | 0.767 | 0.8 | 0.697 | 0.732 | 0.751 | 0.636 | 0.736 | 0.961 | 0.942 | 0.931 | 0.962 | 0.997 |
| 201T | 1.12 | 1.1 | 1.19 | 1.12 | 1.12 | 0.862 | 0.87 | 0.826 | 0.843 | 0.811 | 1.12 | 1.04 | 1.07 | 1.09 | 0.9 |
| NCI-H2009 | 1.25 | 0.921 | 1.07 | 0.516 | 0.536 | 0.356 | 0.381 | 0.359 |  | 0.347 | 1.24 | 1.21 | 1.22 | 1.28 | 1.18 |
| LU99A | 1.32 | 1.13 | 1.01 | 0.971 | 0.48 | 0.878 | 0.969 | 0.982 | 0.629 | 0.866 | 0.917 | 0.745 | 0.78 | 0.636 | 0.436 |
| NCI-H1437 | 0.586 | 0.496 | 0.577 | 0.367 | 0.504 | 0.547 | 0.521 | 0.508 | 0.518 | 0.612 | 1.31 | 1.4 | 1.25 | 1.32 | 1.41 |
| EKVX | 0.952 | 0.896 | 1.19 | 0.955 | 0.601 | 0.359 | 0.267 | 0.406 |  | 0.452 | 0.627 | 0.596 | 0.895 | 0.624 | 0.148 |
| ABC-1 | 0.369 | 0.225 | 0.291 | 0.297 | 0.293 | 1.22 | 1 | 1.2 | 0.87 | 0.972 | 1.28 | 1.11 | 1.27 | 0.964 | 0.778 |
| NCI-H520 | 0.82 | 0.607 | 0.717 | 0.453 | 0.252 | 0.597 | 0.518 | 0.548 |  | 0.492 | 0.768 | 0.816 | 0.753 | 0.676 | 0.742 |
| LCLC-97TM1 | 0.654 | 0.654 | 0.608 | 0.475 | 0.0995 | 0.25 | 0.241 | 0.219 | 0.173 | 0.19 | 1.11 | 0.877 | 0.94 | 0.633 | 0.587 |
| NCI-H3122 | 1.09 | 0.983 | 1.08 | 1.01 | 0.975 | 0.509 | 0.375 | 0.472 | 0.381 | 0.463 | 1.06 | 0.914 | 1.02 | 0.928 | 0.909 |
| PC-14 | 0.903 | 0.787 | 0.936 | 0.785 | 0.574 | 0.224 | 0.242 | 0.233 | 0.2 | 0.216 | 1.01 | 0.916 | 0.957 | 1.01 | 0.79 |
| EPLC-272H | 0.96 | 0.974 | 0.962 | 0.87 | 0.821 | 0.379 | 0.349 | 0.446 | 0.282 | 0.339 | 0.747 | 0.643 | 0.815 | 0.456 | 0.309 |
| A-427 | 1.05 | 0.981 | 1.08 | 0.976 | 1.07 | 0.592 | 0.586 | 0.586 | 0.519 | 0.583 | 1.01 | 1.05 | 1.05 | 0.921 | 0.695 |
